Read-outs that look alike come from different tables or passages of the source. Blank lines part the entries; values can stand above or below the molecule they belong to.
Key:
HR = test: EJ-DR 384-well imaging assay, HR (GFP) readout; settings: read-out: HR IC50
From the text: (§4) The EJ-DR system was made in the U2OS cell line, which provides a simultaneous read-out of alt-NHEJ and HR activity in cells in response to induced DSBs. The cell line consists of a repair template and a reporter vector. When both these elements are chromosomally integrated, cleavage of a restriction enzyme site in the repair template, induced by ligand addition, causes a DSB. Depending on which DSB repair pathway is utilized, cells either express GFP if HR is used to repair the break site using the downstream homology template near the restriction enzyme site, or RFP if alt-NHEJ is involved in ligation of the cut ends.
(§5) An overview of the workflow of this assay is presented in Figure 1A, which starts with the addition of the test compounds and DSB ligands, followed by a media wash 24 hours later to terminate DSB induction, and then live cell imaging 96 hours later. After live cell imaging, we quantify the individual intensities of GFP and RFP signal in cells using the IN Cell imager. We then use the intensity measurements of individual cells in each channel and plot these intensities as a histogram to threshold out baseline levels of GFP and RFP intensity in the absence of ligands (Figure 1B and 1C). After applying the threshold, the percent of GFP and RFP-positive cells is calculated as a readout of induction of HR and alt-NHEJ activity, respectively.
(§6) In addition to quantifying HR and alt-NHEJ activities, cytotoxicity in the absence of DSB ligands (CT) was also evaluated by quantifying the number of Hoeschst 33342-stained cells, allowing us to better understand the margin between on-target and presumable off-target, DNA repair-independent effects. IC50 values of HR inhibition, alt-NHEJ inhibition, and CT were used to calculate the “selectivity index” (SI) (defined as the ratio of CT IC50/alt-NHEJ IC50) and alt-NHEJ selectivity defined as HR IC50/alt-NHEJ IC50.
(§7) The EJ-DR cell line was created in the U2OS cells (a human osteosarcoma cell line), and contained a stably integrated EJ-RFP plasmid to measure alt-NHEJ repair and a DR-GFP plasmid to measure HR repair, and has been previously described [9]. The EJ-DR cell line was cultured in high glucose Dulbecco’s modified Eagle’s medium (DMEM; Thermo Fisher Scientific) with L-glutamine containing 10% tetracycline-free (tet-free) fetal bovine serum (FBS; Takara Bio Inc. and Atlanta Biologics) and 1% Penicillin Streptomycin (Thermo Fisher Scientific). Tet-free FBS was used to prevent any expression of the tetracycline-inducible EJ-RFP system from residual tetracycline found in most commercially available FBS. All cells were maintained at 37°C with 5% CO2.
The EJ-DR cells were plated in 384-well imaging plates at 2500 cells/well. […]

alt-NHEJ = test: EJ-DR 384-well imaging assay, alt-NHEJ (RFP) readout
From the text: as §4, §5, §6, §7
The EJ-DR cells were plated in 384-well imaging plates at 2500 cells/well. 24 hours later, the DSB ligands, Triamcinolone Acetonide (TA; Sigma-Aldrich Co., LLC) and Shield-1 (Takara Bio Inc.), responsible for inducing the DSBs, were added for a final concentration of 100 nM TA and 1 μM Shield-1. Test compounds were also added at the same time using Echo 550 Acoustic Dispenser (Labcyte). A separate plate was seeded to test for cytotoxicity of the test compounds in the absence of the DSB ligands. […] The DSB ligands were washed out 24 hours after addition. 96 hours after addition of the ligands and test compounds, the media was washed off and cells were incubated with Hoechst nuclear stain in Live Cell Imaging Solution (Thermo Fisher Scientific). Plates were rinsed and prepared for immediate live cell imaging using GE IN Cell 2200 (Cytiva Life Sciences).

EJ-DR U2OS cells = test: Cytotoxicity in the absence of DSB ligands (CT), Hoechst cell count; assay type: cell-based, human; settings: Supplementary Table 2, mean ± SEM of four technical replicates
Method: (§8) In addition to quantifying HR and alt-NHEJ activities, cytotoxicity in the absence of DSB ligands (CT) was also evaluated by quantifying the number of Hoeschst 33342-stained cells, allowing us to better understand the margin between on-target and presumable off-target, DNA repair-independent effects. IC50 values of HR inhibition, alt-NHEJ inhibition, and CT were used to calculate the “selectivity index” (SI) (defined as the ratio of CT IC50/alt-NHEJ IC50) and alt-NHEJ selectivity defined as HR IC50/alt-NHEJ IC50. […] (Figure 1E).
(§9) The EJ-DR cell line was cultured in high glucose Dulbecco’s modified Eagle’s medium (DMEM; Thermo Fisher Scientific) with L-glutamine containing 10% tetracycline-free (tet-free) fetal bovine serum (FBS; Takara Bio Inc. and Atlanta Biologics) and 1% Penicillin Streptomycin (Thermo Fisher Scientific). […] All cells were maintained at 37°C with 5% CO2.
(§10) The EJ-DR cells were plated in 384-well imaging plates at 2500 cells/well. 24 hours later, the DSB ligands, Triamcinolone Acetonide (TA; Sigma-Aldrich Co., LLC) and Shield-1 (Takara Bio Inc.), responsible for inducing the DSBs, were added for a final concentration of 100 nM TA and 1 μM Shield-1. Test compounds were also added at the same time using Echo 550 Acoustic Dispenser (Labcyte). A separate plate was seeded to test for cytotoxicity of the test compounds in the absence of the DSB ligands. […] The DSB ligands were washed out 24 hours after addition. 96 hours after addition of the ligands and test compounds, the media was washed off and cells were incubated with Hoechst nuclear stain in Live Cell Imaging Solution (Thermo Fisher Scientific). Plates were rinsed and prepared for immediate live cell imaging using GE IN Cell 2200 (Cytiva Life Sciences). Images were analyzed using InCell Analyzer software (Cytiva Life Sciences). Nuclei were segmented based on the Hoechst staining, and the intensity of the GFP and RFP signals in control populations were measured and binned into histograms to determine signal intensity threshold. The GFP and RFP intensity of all wells was then analyzed, and the percent of positive cells with GFP and RFP intensity above the threshold was calculated to determine the induction of signal. The DAPI cell counts were used to determine the relative cytotoxicity of test compounds in the absence of induced DNA damage.

[1] = as above; assay type: cell-based, human; settings: human, EJ-DR U2OS cells, no DSB ligands
Method: as §8, §9, §10

Human hERG (Kv11.1) = target: T1, Human hERG (Kv11.1) (Homo sapiens, UniProt Q12809); test: Automated hERG inhibition patch clamp assay; assay type: cell-based; settings: for IC50: patch clamp, CHO-K1 cells; for SIhERG (hERG IC50/alt-NHEJ IC50), called fold reduction in hERG potency: ratio
T1 construct: host or cells: CHO-K1
Method: Automated whole cell voltage clamp hERG inhibition assays were performed in Human hERG (Kv11.1) expressed in CHO-K1 cells optimized for automated patch clamp studies by Sophion Bioscience A/S [47].

CYP2D6 = target: T2, CYP2D6 (Homo sapiens, UniProt P10635); test: Cytochrome P450 inhibition assay in human liver microsomes, CYP2D6; assay type: in vitro ADME; settings: for IC50 / selectivity ratio: human liver microsomes; for selectivity ratio: human, read-out: SICYP 2D6 (selectivity index of CYP, CYP2D6 IC50 to alt-NHEJ IC50), called fold decrease in CYP2D6 inhibition
T2 construct: tissue Eurofins Scientific; host or cells: human liver microsomes
Method: (§1) CYP inhibition assays were performed by Eurofins Scientific. Test compounds were incubated with human liver microsomes, followed by compound detection using high performance liquid chromatography with tandem mass spectrometry (HPLC-MS/MS).

CYP3A4 = target: T3, CYP3A4 (Homo sapiens, UniProt P08684); test: Cytochrome P450 inhibition assay in human liver microsomes, CYP3A4; assay type: in vitro ADME; settings: for IC50 / selectivity ratio: human liver microsomes; for selectivity ratio: human, read-out: SICYP 3A4 (selectivity index of CYP, CYP3A4 IC50 to alt-NHEJ IC50), called fold decrease in CYP3A4 inhibition
T3 construct: tissue Eurofins Scientific; host or cells: human liver microsomes
Method: as §1

T type Cav 3.1 = target: T4, T type Cav 3.1 (Homo sapiens, UniProt O43497); test: Calcium channel blocking study, T-type Cav3.1; assay type: cell-based; settings: HEK293 cells stably expressing the channel
T4 construct: host or cells: HEK293
Method: (§11) Calcium channel blocking studies were performed by Charles River Laboratories in Chinese Hamster Ovary (CHO) and HEK293 cell lines stably expressing L-Type and T-type calcium channels, respectively, under tetracycline induction in accordance with a previously published study [46]. Data acquisition and analysis was performed using the IonWorks Quattro™ or Barracuda system software (Molecular Devices Corporation).

T type Cav 3.2 = target: T5, T type Cav 3.2 (Homo sapiens, UniProt O95180); test: Calcium channel blocking study, T-type Cav3.2; assay type: cell-based; settings: HEK293 cells stably expressing the channel
T5 construct: host or cells: HEK293
Method: as §11

[2] = In vivo pharmacokinetic study, brain tissue
Method: (§2) These measurements were used to calculate various pharmacokinetic parameters critical to bioavailability including time to reach maximum concentration (tmax), maximum concentration achieved (Cmax), and half-life (t1/2) (Figure 5C, 5D, Supplementary Table 1).
(§3) Compound concentrations were measured at these time-points using Liquid Chromatography with tandem mass spectrometry (LC-MS-MS). Pharmacokinetic studies were performed by orally dosing test compounds at 30 mg/kg dissolved in 50% PEG400 and 50% water in female athymic nude mice. Plasma and brain tissue concentration were measured using mass spectrometry (MS).

[3] = In vivo pharmacokinetic study, plasma
Method: as §2, §3

T type Cav 3.3 = target: T6, T type Cav 3.3 (Homo sapiens, UniProt Q9P0X4); test: Calcium channel blocking study, T-type Cav3.3; assay type: cell-based; settings: HEK293 cells stably expressing the channel
T6 construct: host or cells: HEK293
Method: as §11

L type Cav 1.2 = target: T7, L type Cav 1.2 (Homo sapiens, UniProt Q13936); test: Calcium channel blocking study, L-type; assay type: cell-based; settings: CHO cells stably expressing the channel
T7 construct: host or cells: CHO
Method: as §11

[4] = Homo sapiens, U2OS, read-out: alt-NHEJ IC50
[5] = figures, read-out: CT IC50 (cytotoxicity)
[6] = oral 30 mg/kg, female athymic nude mice
[7] = oral 30 mg/kg, female athymic nude mice, YU252222 given as methyl ester prodrug
[8] = Homo sapiens, read-out: nc-EJ IC50
[9] = Table 1, read-out: Cytotoxicity IC50
[10] = female, athymic nude, mouse, in vivo, po, 30 mg/kg

T1 sequence (Q12809 whole entry): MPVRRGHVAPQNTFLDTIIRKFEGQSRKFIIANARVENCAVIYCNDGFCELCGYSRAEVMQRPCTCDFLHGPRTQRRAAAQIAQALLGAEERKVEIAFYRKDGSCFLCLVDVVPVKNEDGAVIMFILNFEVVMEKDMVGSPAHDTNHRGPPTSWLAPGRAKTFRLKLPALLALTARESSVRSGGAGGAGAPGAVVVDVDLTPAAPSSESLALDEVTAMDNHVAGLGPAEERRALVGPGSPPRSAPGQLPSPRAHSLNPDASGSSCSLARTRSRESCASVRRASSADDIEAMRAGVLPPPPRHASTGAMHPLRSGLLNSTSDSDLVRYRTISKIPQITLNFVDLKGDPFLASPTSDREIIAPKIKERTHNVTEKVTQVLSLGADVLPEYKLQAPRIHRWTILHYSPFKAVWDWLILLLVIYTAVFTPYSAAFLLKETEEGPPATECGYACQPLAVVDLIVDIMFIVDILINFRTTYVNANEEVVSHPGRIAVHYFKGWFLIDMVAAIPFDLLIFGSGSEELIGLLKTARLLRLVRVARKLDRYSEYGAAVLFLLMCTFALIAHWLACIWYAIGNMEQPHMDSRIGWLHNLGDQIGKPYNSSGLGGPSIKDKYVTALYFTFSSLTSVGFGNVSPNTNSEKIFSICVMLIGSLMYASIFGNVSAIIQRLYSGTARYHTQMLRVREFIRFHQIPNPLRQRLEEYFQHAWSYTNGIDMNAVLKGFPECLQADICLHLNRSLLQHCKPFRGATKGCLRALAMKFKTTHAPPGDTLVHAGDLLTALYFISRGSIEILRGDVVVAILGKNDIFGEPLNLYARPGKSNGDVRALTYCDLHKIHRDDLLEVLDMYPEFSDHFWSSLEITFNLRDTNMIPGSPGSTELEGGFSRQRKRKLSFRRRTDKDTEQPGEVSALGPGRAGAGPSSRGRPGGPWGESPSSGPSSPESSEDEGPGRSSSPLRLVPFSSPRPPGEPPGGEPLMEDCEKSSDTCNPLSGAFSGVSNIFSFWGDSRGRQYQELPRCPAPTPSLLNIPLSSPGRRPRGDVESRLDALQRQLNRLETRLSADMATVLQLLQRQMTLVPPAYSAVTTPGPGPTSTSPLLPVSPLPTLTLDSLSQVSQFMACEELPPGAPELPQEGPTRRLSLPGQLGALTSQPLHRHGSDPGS
T3 sequence (P08684 whole entry): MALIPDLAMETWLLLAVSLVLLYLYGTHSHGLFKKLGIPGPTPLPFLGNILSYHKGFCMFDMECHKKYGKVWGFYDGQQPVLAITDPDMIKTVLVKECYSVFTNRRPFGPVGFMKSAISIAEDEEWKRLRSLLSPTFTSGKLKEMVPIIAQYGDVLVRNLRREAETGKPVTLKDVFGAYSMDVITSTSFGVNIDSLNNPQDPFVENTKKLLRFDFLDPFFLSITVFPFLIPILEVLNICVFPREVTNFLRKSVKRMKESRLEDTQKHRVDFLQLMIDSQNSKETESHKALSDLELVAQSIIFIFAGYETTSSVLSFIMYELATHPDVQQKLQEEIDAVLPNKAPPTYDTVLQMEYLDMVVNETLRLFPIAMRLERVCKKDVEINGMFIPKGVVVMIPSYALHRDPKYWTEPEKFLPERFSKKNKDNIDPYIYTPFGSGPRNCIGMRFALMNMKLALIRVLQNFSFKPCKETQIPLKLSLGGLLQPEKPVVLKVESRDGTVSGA
T2 sequence (P10635 whole entry): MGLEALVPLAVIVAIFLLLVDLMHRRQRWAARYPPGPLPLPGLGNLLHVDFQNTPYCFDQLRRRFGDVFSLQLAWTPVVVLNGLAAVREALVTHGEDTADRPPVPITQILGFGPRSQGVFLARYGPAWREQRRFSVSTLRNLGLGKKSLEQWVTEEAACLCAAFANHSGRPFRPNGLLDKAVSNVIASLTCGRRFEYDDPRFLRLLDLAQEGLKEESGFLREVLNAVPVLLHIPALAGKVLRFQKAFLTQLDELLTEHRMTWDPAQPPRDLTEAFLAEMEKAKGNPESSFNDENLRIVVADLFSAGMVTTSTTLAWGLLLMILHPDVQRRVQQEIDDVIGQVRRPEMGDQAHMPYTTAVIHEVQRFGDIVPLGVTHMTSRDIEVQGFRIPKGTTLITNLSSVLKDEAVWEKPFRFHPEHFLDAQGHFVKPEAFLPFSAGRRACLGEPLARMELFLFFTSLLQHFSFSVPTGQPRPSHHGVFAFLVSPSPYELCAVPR
T4 sequence (O43497 whole entry): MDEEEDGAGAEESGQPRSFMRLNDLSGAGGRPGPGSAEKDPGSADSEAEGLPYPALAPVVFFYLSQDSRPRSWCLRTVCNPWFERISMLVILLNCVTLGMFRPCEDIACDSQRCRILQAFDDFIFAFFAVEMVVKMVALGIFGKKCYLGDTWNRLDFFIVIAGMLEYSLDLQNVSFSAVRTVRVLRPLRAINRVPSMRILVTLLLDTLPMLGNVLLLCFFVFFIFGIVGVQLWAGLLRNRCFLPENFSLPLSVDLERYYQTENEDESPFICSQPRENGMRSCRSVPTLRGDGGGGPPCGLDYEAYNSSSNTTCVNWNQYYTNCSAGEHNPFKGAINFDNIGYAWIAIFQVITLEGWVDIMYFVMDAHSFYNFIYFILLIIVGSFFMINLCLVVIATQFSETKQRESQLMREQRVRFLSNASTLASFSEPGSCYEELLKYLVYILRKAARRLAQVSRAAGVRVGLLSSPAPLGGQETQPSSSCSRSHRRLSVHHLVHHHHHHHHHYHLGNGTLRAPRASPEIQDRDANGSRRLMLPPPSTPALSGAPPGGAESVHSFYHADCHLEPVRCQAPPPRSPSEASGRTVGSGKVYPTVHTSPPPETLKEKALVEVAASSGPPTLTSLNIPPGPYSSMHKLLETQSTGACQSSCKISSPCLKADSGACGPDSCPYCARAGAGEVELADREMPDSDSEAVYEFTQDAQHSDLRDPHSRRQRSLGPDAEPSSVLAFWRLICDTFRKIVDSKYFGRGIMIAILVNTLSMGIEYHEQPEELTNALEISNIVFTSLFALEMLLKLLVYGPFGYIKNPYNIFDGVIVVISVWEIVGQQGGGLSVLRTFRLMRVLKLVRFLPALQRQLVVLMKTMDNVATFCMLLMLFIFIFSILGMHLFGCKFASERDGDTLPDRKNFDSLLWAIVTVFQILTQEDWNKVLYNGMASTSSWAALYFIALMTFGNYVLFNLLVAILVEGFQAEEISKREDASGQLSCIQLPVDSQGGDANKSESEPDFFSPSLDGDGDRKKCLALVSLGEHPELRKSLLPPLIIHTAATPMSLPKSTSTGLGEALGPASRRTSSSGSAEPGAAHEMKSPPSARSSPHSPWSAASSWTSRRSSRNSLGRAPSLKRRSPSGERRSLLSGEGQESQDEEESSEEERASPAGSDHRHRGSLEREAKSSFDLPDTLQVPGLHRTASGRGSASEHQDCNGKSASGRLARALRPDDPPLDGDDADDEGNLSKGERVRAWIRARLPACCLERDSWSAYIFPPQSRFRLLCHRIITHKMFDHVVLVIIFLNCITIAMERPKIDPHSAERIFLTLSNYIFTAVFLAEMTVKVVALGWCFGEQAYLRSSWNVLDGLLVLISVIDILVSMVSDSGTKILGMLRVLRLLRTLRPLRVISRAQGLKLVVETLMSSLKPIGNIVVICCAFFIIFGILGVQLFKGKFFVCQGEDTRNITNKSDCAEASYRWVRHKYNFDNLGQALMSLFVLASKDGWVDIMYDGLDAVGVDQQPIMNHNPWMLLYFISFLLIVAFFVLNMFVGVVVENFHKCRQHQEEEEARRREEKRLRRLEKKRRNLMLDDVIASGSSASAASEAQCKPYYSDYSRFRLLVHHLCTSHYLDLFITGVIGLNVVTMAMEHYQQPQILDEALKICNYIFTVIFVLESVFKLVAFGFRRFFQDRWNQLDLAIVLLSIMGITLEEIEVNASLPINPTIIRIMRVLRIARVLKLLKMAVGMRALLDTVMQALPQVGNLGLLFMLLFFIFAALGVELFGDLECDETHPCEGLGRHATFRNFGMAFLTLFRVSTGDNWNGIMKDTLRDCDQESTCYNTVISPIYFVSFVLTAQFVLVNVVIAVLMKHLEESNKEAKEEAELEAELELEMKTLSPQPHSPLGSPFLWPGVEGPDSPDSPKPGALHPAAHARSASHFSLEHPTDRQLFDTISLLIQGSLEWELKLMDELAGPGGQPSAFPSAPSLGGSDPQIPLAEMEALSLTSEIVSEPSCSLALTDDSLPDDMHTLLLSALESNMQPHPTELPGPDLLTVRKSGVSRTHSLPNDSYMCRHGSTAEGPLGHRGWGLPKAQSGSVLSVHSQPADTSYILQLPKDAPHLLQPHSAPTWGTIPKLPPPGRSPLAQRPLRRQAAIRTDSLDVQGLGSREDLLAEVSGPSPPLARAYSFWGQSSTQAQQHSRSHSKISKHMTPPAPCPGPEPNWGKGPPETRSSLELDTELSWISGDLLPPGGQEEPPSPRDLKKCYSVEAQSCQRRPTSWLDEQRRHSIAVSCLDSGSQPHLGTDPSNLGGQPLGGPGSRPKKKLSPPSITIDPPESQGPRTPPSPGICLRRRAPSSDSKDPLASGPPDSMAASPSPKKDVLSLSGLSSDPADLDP

- IC50 (HR; EJ-DR assay, Supplementary Table 2, mean ± SEM of four technical replicates): 0.06 ± 0.01 µM
Compound: CC(=O)c1c(C)c2cnc(Nc3ccc(N4CCNCC4)cn3)nc2n(C2CCCC2)c1=O [Pablociclib]
- Selectivity Index (HR IC50/alt-NHEJ IC50) (alt-NHEJ; ratio, Supplementary Table 2): 1.50
- IC50 (alt-NHEJ; read-out: alt-NHEJ IC50, EJ-DR assay, Supplementary Table 2, mean ± SEM of four technical replicates): 0.04 ± 0.01 µM
- IC50 (EJ-DR U2OS cells): 1.37 ± 0.36 µM

Compound: CC(C)C1c2ccccc2CCN1C(=O)CC1CCN(C(=O)OC(C)(C)C)CC1 (stereo not shown) [YU241542]
- IC50 (alt-NHEJ; [4]): 41.3 µM
- selectivity index SI (CT IC50/alt-NHEJ IC50) (alt-NHEJ; ratio): > 1.45
- IC50 at 96 h [1, 5]: > 60 µM

Compound: CC(C)[C@H]1c2ccc(F)cc2CC[C@]1(O)CC(=O)N(C)CCCc1nc2ccccc2[nH]1 [YU241551]
- IC50 (alt-NHEJ; [4]): > 60 µM
- selectivity index SI (CT IC50/alt-NHEJ IC50) (alt-NHEJ; ratio): > 1
- IC50 at 96 h [1, 5]: > 60 µM

Compound: CC(C)[C@H]1c2ccc(F)cc2CC[C@]1(O)CCN(C)CC(O)c1ccccc1 (stereo partly shown) [YU241553]
- IC50 (alt-NHEJ; [4]): 8.87 µM
- selectivity index SI (CT IC50/alt-NHEJ IC50) (alt-NHEJ; ratio): 2.71
- IC50 at 96 h [1, 5]: 24 µM

Compound: CC(C)[C@H]1c2ccc(F)cc2CC[C@]1(O)CCN1C[C@H](Oc2nccc3ccccc23)C[C@H]1CO [YU252223]
- IC50 (Human hERG (Kv11.1)): 6.8 µM
- SIhERG (hERG IC50/alt-NHEJ IC50), called fold reduction in hERG potency (Human hERG (Kv11.1)): 4.14
- IC50 (alt-NHEJ; [4]): 1.64 µM

Compound: COC[C@@H]1C[C@@H](Oc2nccc3ccccc23)CN1CC[C@@]1(O)CCc2cc(F)ccc2[C@@H]1C(C)C [YU252373]
- IC50 (Human hERG (Kv11.1)): 9.8 µM
- SIhERG (hERG IC50/alt-NHEJ IC50), called fold reduction in hERG potency (Human hERG (Kv11.1)): 5.76
- IC50 (alt-NHEJ; [4]): 1.7 µM

- IC50 (CYP2D6): 3.5 µM
- IC50 (CYP3A4): 12.6 µM
Compound: COCC(=O)OC1(CCN2CC(Oc3nccc4ccccc34)CC2CO)CCc2cc(F)ccc2C1C(C)C (stereo not shown) [YU252376]
- selectivity ratio (CYP2D6; ratio): ~3
- SICYP 2D6 (selectivity index of CYP, CYP2D6 IC50 to alt-NHEJ IC50), called fold decrease in CYP2D6 inhibition (CYP2D6; ratio): 3.18
- selectivity ratio (CYP3A4; ratio): 11.4
- IC50 (alt-NHEJ; [4]): 1.1 µM

- IC50 (HR; Homo sapiens): > 60 µM
- IC50 (T type Cav 3.1): 5.3 µM
- IC50 (T type Cav 3.2): 5.6 µM
- half-life ([3]; female, athymic nude, mouse, plasma, po, 30 mg/kg): 1.81 h
- Cmax ([3]; female, athymic nude, mouse, plasma, po, 30 mg/kg, Maximum concentration (Cmax), oral 30 mg/kg, female athymic nude mice, YU252222 given as methyl ester prodrug): 68.9 ng/mL
- % AUC Extrapolation [3, 6]: 1.1%
- AUC(0-x)/Dose [3, 6]: 5.83 ng·h/mL/mg/kg
- Cmax/Dose [3, 6]: 2.30 ng/mL/mg/kg
- Time at which Cmax was observed (tmax) [3, 6]: 1.0 h
- Area under concentration vs time curve (AUC) (0-x) [3, 7]: 175 ng·h/mL
- Maximum concentration (Cmax) ([3]; oral 30 mg/kg, female athymic nude mice, YU252222 given as methyl ester prodrug, 30 mg/kg): < 100 ng/mL
- IC50 (T type Cav 3.3): 8.2 µM
Compound: CC(C)C1c2ccc(F)cc2CCC1(O)CCN1CC(Oc2ccc(Cl)cn2)CC1CO (stereo not shown) [YU252377]
- IC50 (Human hERG (Kv11.1)): 6.43 µM
- SIhERG (hERG IC50/alt-NHEJ IC50), called fold reduction in hERG potency (Human hERG (Kv11.1)): 4.20
- brain exposure [2, 6]: did not achieve detectable brain exposure
- IC50 (L type Cav 1.2): 6.3 µM
- IC50 (alt-NHEJ; [4]): 1.53 µM
- IC50 (alt-NHEJ; [8]): 1.5 µM
- IC50 at 96 h [1, 9]: 14.8 µM

Compound: CC(C)C(C(=O)NCCCN1CC=C(c2ccc(Cl)cc2)CC1)c1ccc(F)cc1 (stereo not shown) [YU252386]
- IC50 (HR; Homo sapiens): > 60 µM
- IC50 (T type Cav 3.1): 0.9 µM
- IC50 (CYP2D6): 0.87 µM
- selectivity ratio (CYP2D6; ratio): 0.82
- IC50 (T type Cav 3.2): 0.9 µM
- IC50 (CYP3A4): 17.9 µM
- selectivity ratio (CYP3A4; ratio): 16.9
- SICYP 3A4 (selectivity index of CYP, CYP3A4 IC50 to alt-NHEJ IC50), called fold decrease in CYP3A4 inhibition (CYP3A4; ratio): ~ 17
- half-life [2, 10]: ~2.5 h
- brain concentration relative to the alt-NHEJ IC50 [2, 6]: ~ 3 fold
- brain exposure compared to mibefradil [2, 6]: ~ 8 fold
- percent coverage of the in vitro alt-NHEJ IC50 at the Cmax in the brain [2, 6]: 300%
- half-life [3, 10]: 4.01 h
- % AUC Extrapolation [3, 6]: 7.5%
- AUC(0-x)/Dose [3, 6]: 45.0 ng·h/mL/mg/kg
- Cmax/Dose [3, 6]: 11.3 ng/mL/mg/kg
- Time at which Cmax was observed (tmax) [3, 6]: 1.0 h
- plasma concentration compared with mibefradil [3, 6]: ~ 0.3 fold
- Area under concentration vs time curve (AUC) (0-x) [3, 7]: 1350 ng·h/mL
- IC50 (T type Cav 3.3): 1.1 µM
- IC50 (L type Cav 1.2): 5.6 µM
- IC50 (alt-NHEJ; [4]): 1.06 µM
- IC50 (alt-NHEJ; [8]): 1.1 µM
- IC50 at 96 h [1, 9]: 17.9 µM

- IC50 (CYP2D6): 2.3 µM
- IC50 (CYP3A4): 14.5 µM
Compound: O=C(NC(CCN1CC(Oc2nccc3ccccc23)CC1CO)c1ccc(F)cc1)C1CCC(F)(F)CC1 (stereo not shown) [YU253106]
- selectivity ratio (CYP2D6; ratio): 1.64
- selectivity ratio (CYP3A4; ratio): 10.3
- IC50 (alt-NHEJ; [4]): 1.4 µM

- IC50 (HR; EJ-DR U2OS cells, text and figures): 7.18 µM
Compound: C[C@H]1COCCN1c1cc(C2(S(=O)(=O)C3CC3)CC2)nc(-c2ccc(NC(=S)NCCO)cc2)n1 [mTORC1/2 inhibitor, AZD 3147]
- selectivity index SI (CT IC50/alt-NHEJ IC50) (alt-NHEJ; ratio): 7.22
- IC50 (alt-NHEJ; read-out: alt-NHEJ IC50, EJ-DR U2OS cells, text and figures): 0.09 µM

— paper PMC8092340 (Oncotarget, 2021)
